Data on five compounds can be found in patent publication USRE47267E1, “Pyridinecarboxamides as CXCR2 modulators” (Syntrix Biosystems, Inc., priority 2009, dated 2019).

Data set [1] is described as follows: Aqueous solubility. It counts as physicochemical. An excerpt: (§1) The lipid based excipient Gelucire® 44/14 is a self-emulsifying drug delivery system (SEDDS) that is able to solubilize both SX-517 and SX-576 into aqueous solutions via micellular formation. […] Therefore, lipid-based emulsifiers are important excipients for the oral delivery of SX-576.
Data set [2] concerns the target T1, CXCR2 (Homo sapiens (Human), UniProt P25025). Briefly: β-arrestin recruitment to CXCR2 (β-galactosidase fragment complementation, DiscoveRx). The conditions noted are these: for inhibition of β-arrestin recruitment following CXCR2 activation with IL-8: FIG. 2; for activity on β-arrestin complexation with CXCR2 in the absence of IL8: FIG. 3. On the technique in general: Arrestin recruitment assays detect the binding of arrestin to an activated receptor.

Data set [3] can be described thus: Crossover pharmacokinetic experiment in Beagle dogs. The data set is classed as in vivo. The conditions noted are these: for plasma level: dosed to Beagle dogs without excipient, data not shown. On the procedure: In this study, male Beagle dogs (n=5) were dosed intravenously on study day 1 with SX-576 in dimethylformamide/PEG400/saline (40:40:20) at a dose level of 5 mg/kg and a dose volume of 0.5 mL/kg. Blood samples were taken predose, and at time points 30, 60, 90, 120, 180, 360, 540 and 720 minutes. The blood was collected in tubes containing K2EDTA as an anticoagulant, and the tubes were centrifuged and the plasma fractions collected and frozen. After a one-week washout period, the same Beagle dogs were dosed orally with SX-576 in lipid based excipient Gelucire® 44/14 (Gattefosse) at a dose level of 5 mg/kg. Blood samples were then taken and plasma fractions collected as previously described. Prior to analysis, the plasma samples were thawed and diluted 1:3 into acetonitrile containing 1 μM of compound 153 as an internal standard. The resulting samples were centrifuged and the supernatant analyzed by LC-MS monitoring in multiple reaction monitoring mode. The samples were run concomitantly with a calibration curve of SX-576 in the same internal standard solution.
as §1

Data set [4] deals with T1, CXCR2. Briefly: In vitro agonist activity: intracellular calcium release in human neutrophils in the absence of GROα. It counts as cell-based.
Description: This assay measures intracellular calcium release via fluorescence as an indication of CXCR2 receptor activation by the physiologic agonist GROα. The assay is a Ca^2+ mobilization assay that measures changes in intracellular Ca^2+ with a FlexStation II scanning fluorometer using a FLIPR-3 Calcium Assay Kit (Molecular Devices, Sunnyvale, Calif.). The procedure is as follows: • 1. Human neutrophils were suspended in HBSS^− (without Ca^2+ and Mg^2+) containing 10 mM HEPES and FLIPR Calcium 3 dye (3.1×10^7 cells in total volume 1.7 mL). • 2. […] As controls, 2 μL of DMSO (1% final concentration) were added to other 2 tubes. • 3. Cells were incubated for 30 min at 37° C. • 4. […] The cell suspension was aliquoted into a 96-well Reading Plate (Corning) in a volume of 90 μL (10^5 cells/well). […] After 15 sec of reading the basal level of fluorescence using the FlexStation II instrument, 10 μL of GROα or HBSS^− were automatically transferred from the Compound Plate into the Reading Plate (final concentration of GROα was 25 nM). • 8. Changes in fluorescence were monitored (λex=485 nm, λem=525 nm) every 5 s for 240 to 500 s at room temperature. • 9. The maximum change in fluorescence, expressed in arbitrary units over baseline (Max-Min) was used to determine the GROα response.
(§2) The maximum change in fluorescence, expressed in arbitrary units over baseline (Max-Min), was used to determine the GROα response.
Data set [5] concerns neutrophil influx. Kind of data set: Murine air pouch model of neutrophil chemotaxis (p.o.). The conditions noted are these: for total neutrophil counts in the blood: high doses, compared to control animals, data not shown. It counts as in vivo, male CD-1 mice. The method, then:
Compounds 1 (SX-517) and 2 (SX-576) were also assayed in an in vivo air-pouch model of inflammation. SX-517 and SX-576 were able to attenuate neutrophil influx in the air-pouch model by about 50% at an oral dose of 0.2 and 0.05 mg/kg, respectively. […] More specifically, the procedure was performed by forming an air pouch on the backs of male CD-1 mice via the subcutaneous injection of air (2 mL). The next day, an additional subcutaneous injection of air (1.5 mL) was performed to reinflate the air pouch. The mice were given either vehicle control (Labrasol®) or test compound solubilized in Labrasol® via oral gavage. After 3 hours, either sterile phosphate buffered saline (PBS, 1 ml) or 2% carrageenan in sterile PBS (1 mL) was injected into the air pouch. After 4 hours, the mice were sedated with ketamine, and sacrificed by cervical dislocation. The exudate in the air pouch was collected by syringe, with an additional 2 mL wash with sterile PBS. The neutrophils were stained with trypan blue and counted on a hemocytometer under 20× magnification.

Data set [6] relates to neutrophil influx. Kind of data set: Murine air pouch model of neutrophil chemotaxis (i.v.). It counts as in vivo, male CD-1 mice. The conditions noted are these: all tested dose levels 0.02, 0.05, 0.2 and 1.0 mg/kg, FIG. 6. On the procedure: The procedure was performed by forming an air pouch on the backs of male CD-1 mice via the subcutaneous injection of air (2 mL). The next day, an additional subcutaneous injection of air (1.5 mL) was performed to reinflate the air pouch. The mice were given either vehicle control (dimethylformamide/PEG400/saline) or test compound solubilized in vehicle via tail vein injection. After 30 minutes, either sterile phosphate buffered saline (PBS, 1 ml) or 2% carrageenan in sterile PBS (1 mL) was injected into the air pouch. After 4 hours, the mice were sedated with ketamine, and sacrificed by cervical dislocation. The exudate in the air pouch was collected by syringe, with an additional 2 mL wash with sterile PBS. The neutrophils were stained with trypan blue and counted on a hemocytometer under 20× magnification.

Data set [7] addresses T1, CXCR2. Kind of data set: Wash-resistant inhibition of GROα-mediated intracellular calcium release in isolated human neutrophils. It counts as cell-based. The conditions noted are these: 0.4, 2 and 10 μM, 30 min incubation, washed; time points out to 6 hours; FIG. 1. For orientation: Calcium flux is commonly read through the fluorescence of an indicator in the cells.
Description: The cells were washed and resuspended in RPMI/2% serum (serum was obtained from the same donor as the neutrophils). The concentration of the neutrophil suspension was 10^7 cells/mL. […] The neutrophils were washed and resuspended in RPMI/2% serum and maintained at room temperature. At 30 minutes before each time point, a 56.25 μL aliquot of the neutrophils were removed and loaded for 30 minutes at room temperature in the dark with FLIPR-3 reagent (262.5 μL per tube).
Data set [8] deals with ozone-induced pulmonary inflammation. Briefly: Ozone rat model of pulmonary inflammation. The conditions noted are these: 1 mg/kg i.v. at t=0, 5, 9 h, 1 ppm ozone 4 h. It counts as in vivo, Sprague-Dawley rats. On the procedure: Activity in this model of pulmonary inflammation would provide direct relevance towards the treatment of a number of pulmonary inflammatory diseases, including chronic obstructive pulmonary disease (COPD) and bronchopulmonary dysplasia (BPD). In this experiment, Sprague-Dawley rats (n=4 per cohort) were dosed intravenously at t=0 with either vehicle (negative and positive groups, dimethylformamide/PEG400/saline, 40:40:20) or SX-576 (1 mg/kg). The rats were then placed in air (negative group) or 1 ppm ozone (positive and SX-576 groups) for 4 hours. The rats were dosed again at t=5 and 9 hours. The rats were then sacrificed at t=24 hours, and the bronchoalveolar lavage fluid (BALF) was collected. The cells were spun down, stained with Wright-Giemsa and counted. In the negative groups, no neutrophils were observed when stained. As a measure of lung leakage/damage, protein levels were quantified in BALF by Bradford protein assay analysis.

For data set [9], the target named is T1, CXCR2. Kind of data set: Inhibition of GROα-mediated intracellular calcium release in human neutrophils (FLIPR-3 Ca2+ mobilization assay). The conditions noted are these: GROα 25 nM. It counts as cell-based.
Description: This assay measures intracellular calcium release via fluorescence as an indication of CXCR2 receptor activation by the physiologic agonist GROα. The assay is a Ca^2+ mobilization assay that measures changes in intracellular Ca^2+ with a FlexStation II scanning fluorometer using a FLIPR-3 Calcium Assay Kit (Molecular Devices, Sunnyvale, Calif.). The procedure is as follows: • 1. Human neutrophils were suspended in HBSS^− (without Ca^2+ and Mg^2+) containing 10 mM HEPES and FLIPR Calcium 3 dye (3.1×10^7 cells in total volume 1.7 mL). • 2. […] As controls, 2 μL of DMSO (1% final concentration) were added to other 2 tubes. • 3. Cells were incubated for 30 min at 37° C. • 4. After dye loading, tubes were centrifuged at 6,000 rpm for 1 min, supernatant was removed and cell pellet was re-suspended in 200 μL of HBSS^+ (with Ca^+ and Mg^2+) containing 10 mM HEPES. • 5. The compound or DMSO (control) was added again at the same concentrations that were used during cell loading. • 6. The cell suspension was aliquoted into a 96-well Reading Plate (Corning) in a volume of 90 μL (10^5 cells/well). The Compound Plate contained physiologic agonist (GROα in HBSS^−) or HBSS^− (control). • 7. […] The maximum change in fluorescence, expressed in arbitrary units over baseline (Max-Min) was used to determine the GROα response.
Briefly, human neutrophils were suspended in HBSS (without Ca^2+ and Mg^2+) containing 10 mM HEPES and FLIPR Calcium 3 dye (3.1×10^7 cells in total volume 1.7 mL). […] As controls, 2 μL of DMSO (1% final concentration) were added to 2 other tubes. Cells were incubated for 30 min at 37° C. After dye loading, tubes were centrifuged at 6,000 rpm for 1 min, supernatant was removed and the cell pellet was re-suspended in 200 μL of HBSS^+ (with Ca^2+ and Mg^2+) containing 10 mM HEPES. […] The cell suspension was aliquoted into a 96-well Reading Plate (Corning) in a volume of 90 μL (10^5 cells/well). […]
as §2

T1 sequence (P25025 whole entry, the tested form may be a part): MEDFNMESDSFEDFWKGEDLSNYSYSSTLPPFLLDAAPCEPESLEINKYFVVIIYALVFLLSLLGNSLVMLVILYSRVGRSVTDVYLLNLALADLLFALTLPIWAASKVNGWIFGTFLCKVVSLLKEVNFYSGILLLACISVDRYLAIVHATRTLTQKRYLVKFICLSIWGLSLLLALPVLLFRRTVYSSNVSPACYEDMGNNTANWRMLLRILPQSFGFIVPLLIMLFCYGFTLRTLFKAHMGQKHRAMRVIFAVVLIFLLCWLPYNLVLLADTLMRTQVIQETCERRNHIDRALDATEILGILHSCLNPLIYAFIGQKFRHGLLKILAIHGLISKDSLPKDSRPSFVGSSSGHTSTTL

For `O=C(Nc1ccc(F)cc1)c1ccc(SCc2ccccc2B(O)O)nc1` [Compound 1, 6-(2-borono-2-yl-benzylsulfanyl)-N-(4-fluoro-phenyl)-nicotinamide], in data set [1], the aqueous solubility entry is “poor”. Besides, the “inhibition of β-arrestin recruitment following CXCR2 activation with IL-8” value in data set [2] is given as “inhibited arrestin recruitment”. For the same compound, the “activity on β-arrestin complexation with CXCR2 in the absence of IL8” value in data set [2] is “acted as inverse agonists”. For the same compound, the plasma level entry in data set [3] is “undetected”. Further, the “agonist activity with respect to the release of intracellular calcium” value in [4] (listed as 1 (SX-517)) is reported as “did not show agonist activity”; in data set [4] (listed as SX-517) it was “did not exhibit any agonist activity”. For the same compound, the neutrophil influx entry is “decrease of neutrophil influx” in [5] (0.005 and 0.2 p.o., FIG. 4); “increase in neutrophil influx” in data set [5] (doses in excess of 10 mg/kg p.o., FIG. 4). Further, in [5], the “total neutrophil counts in the blood” value is “not significantly changed”.
For `O=C(Nc1ccc(F)cc1)c1ccc(SCc2cc(OC(F)(F)F)ccc2B(O)O)nc1` [Compound 2, 6-(2-boronic acid-5-trifluoromethoxy-benzylsulfanyl)-N-(4-fluoro-phenyl)-nicotinamide], in data set [1], the aqueous solubility result is “poor”. The “inhibition of β-arrestin recruitment following CXCR2 activation with IL-8” value in data set [2] is on record as “inhibited arrestin recruitment”. In addition, the “activity on β-arrestin complexation with CXCR2 in the absence of IL8” value in data set [2] is on record as “acted as inverse agonists”. Also, the neutrophil influx entry is “significantly attenuate neutrophil influx” in data set [6]; “decrease of neutrophil influx” in [5] (0.05 mg/kg p.o., FIG. 5); “increase in neutrophil influx” in [5] (doses in excess of 1 mg/kg p.o., FIG. 5). In addition, the “bioavailability following oral administration” value in data set [3] (Beagle dogs, 5 mg/kg oral in Gelucire 44/14) was “improved”. Moreover, in [3], the plasma level entry is listed as “undetected”. The “total neutrophil counts in the blood” value in [5] is on record as “not significantly changed”. Also, in data set [7], the “inhibition of GROα mediated intracellular calcium release after inhibitor washout” value was “dose-dependent and wash-resistant inhibition”. For the same compound, in data set [8] (BALF at 24 h, FIG. 7a), the “influx of neutrophils into the lungs” value is recorded as “significantly decreased”. In addition, the “influx of macrophages into the lungs” value in [8] (BALF at 24 h, FIG. 7b) was “significantly decreased”. Further, the “ozone-induced lung damage (protein levels in the BALF)” value in data set [8] (FIG. 7c) was “protected against ozone-induced lung damage”.
Take `COc1ccc(B(O)O)c(CSc2ccc(C(=O)Nc3ccc(F)cc3)cn2)c1` [Compound 4, 6-(2-boronic acid-5-methoxy-benzylsulfanyl)-N-(4-fluoro-phenyl)-nicotinamide]: the half-maximal inhibitory concentration (IC50) in data set [9] was 0.079 µM.
Still for that read-out and setting: the same measure for `Cc1nn(-c2ccccc2)nc1CSc1ccc(C(=O)Nc2ccc(F)cc2)cn1` [Compound 48]: over 5 µM.
Still for that read-out and setting: the result for `O=C(Nc1ccc(F)cc1)c1ccc(SC2CCOC2=O)nc1` (stereo not shown) [Compound 81] reads over 5 µM.

Usually IC50 stands for the concentration that inhibits the measured activity by half.
